Source: patent publication US20100055192A1, “MICRONIZED PARTICLES OF LOW-DOSAGE STRENGTH ACTIVE AGENTS FOR POWDER FORMULATIONS FOR INHALATION” (Chiesi Farmaceutici S.p.A., priority 2007, published 2010)
Where a name gives a salt, the structure may show the parent alone.

Key:
Assay type in all cases: physicochemical
[1] = Specific Surface Area by BET nitrogen adsorption (Coulter SA3100); settings: mean of three determinations
Experimental: (§1) The particle size was determined by laser diffraction using a Malvern apparatus. The parameters taken into consideration were the VD in microns of 5%, 10%, 50%, and 90% of the particles expressed as d(v,0.05), d(v,0.1), d(v, 0.5), and d(v, 0.9), respectively, which correspond to the mass diameter assuming a size independent density for the particles. The Specific Surface Area (SSA) was determined by BET nitrogen adsorption using a Coulter SA3100 apparatus as a mean of three determinations.
(§2) Different batches of formoterol fumarate dihydrate were milled in a jet mill apparatus at different operating conditions in order to obtain different particle size distribution. The micronized batches were characterised in terms of particle size distribution and Specific Surface Area as reported in Example 1.

[2] = Particle size distribution by laser diffraction (Malvern apparatus); settings: for Particle size d (v, 0.05): volume diameter of 5% of the particles; for Particle size d (v, 0.1): volume diameter of 10% of the particles; for Particle size d (v, 0.5): volume diameter of 50% of the particles; for Particle size d (v, 0.9): volume diameter of 90% of the particles
Experimental: as §1, §2

[3] = Agglomerates after mixing with a carrier of coarser particles, detected by Near Infrared Spectrophotometer with microscope; settings: batch added to carrier of coarser particles; suitable time of mixing, or ten hours of mixing where agglomerates remained
Experimental: (§3) The various batches were then added to a carrier made of coarser particles.
as §3

Row | SMILES | SSA (Specific Surface Area) [1] [m^2/g] | Particle size d (v, 0.05) [2] [μm] | Particle size d (v, 0.1) [2] [μm] | Particle size d (v, 0.5) [2] [μm] | Particle size d (v, 0.9) [2] [μm] | Agglomerates of the active ingredient in the formulation after mixing [3]
1 | COc1ccc(C[C@@H](C)NC[C@H](O)c2ccc(O)c3[nH]c(=O)ccc23)cc1 [carmoterol hydrochloride batch 4] | 10.74 | 0.55 | 0.68 | 1.58 | 3.40 | agglomerates where still present
2 | COc1ccc(C[C@@H](C)NC[C@H](O)c2ccc(O)c3[nH]c(=O)ccc23)cc1 [carmoterol hydrochloride batch 3] | 18.11 | 0.58 | 0.59 | 1.32 | 2.75 | agglomerates where still present
3 | COc1ccc(C[C@@H](C)NC[C@H](O)c2ccc(O)c3[nH]c(=O)ccc23)cc1 [carmoterol hydrochloride batch 1] | 9.70 | 0.70 | 0.94 | 2.16 | 4.34 | no agglomerates were observed
4 | COc1ccc(C[C@@H](C)NC[C@H](O)c2ccc(O)c3[nH]c(=O)ccc23)cc1 [carmoterol hydrochloride batch 6] | 11.80 | 0.59 | 0.73 | 1.61 | 3.25 | 
5 | COc1ccc(C[C@@H](C)NC[C@H](O)c2ccc(O)c3[nH]c(=O)ccc23)cc1 [carmoterol hydrochloride batch 5] | 11.91 | 0.48 | 0.70 | 1.45 | 2.75 | agglomerates where still present
6 | COc1ccc(C[C@@H](C)NC[C@H](O)c2ccc(O)c3[nH]c(=O)ccc23)cc1 [carmoterol hydrochloride batch 2] | 9.68 | 0.67 | 0.85 | 2.03 | 4.31 | no agglomerates were observed
